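Five compound concentrations were applied to cells in 96-well plates for 48 hours; endpoints were derived by simple linear interpolation of the resulting dose-response curve. GI50 is the concentration that inhibits growth by half.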 The source made the active and inactive calls. No stated cut-off is given here; in the data, active = GI50 up to about 1.1 µM and inactive = higher.
Experiments:
Assay in all cases: inhibition of tumour cell growth, NCI panel, 48 h
NCI-H460 = test system: NCI-H460
SK-MEL-28 = test system: SK-MEL-28
SF-268 = test system: SF-268
NCI-H226 = test system: NCI-H226
A549 = test system: A549
SW-620 = test system: SW-620
OVCAR-4 = test system: OVCAR-4
SR = test system: SR
KM12 = test system: KM12
UACC-257 = test system: UACC-257
SF-539 = test system: SF-539
CCRF-CEM = test system: CCRF-CEM
HT-29 = test system: HT-29
IGROV-1 = test system: IGROV-1
HOP-92 = test system: HOP-92
HL-60 = test system: HL-60
SK-OV-3 = test system: SK-OV-3

| SMILES | GI50 (NCI-H460) | GI50 (SK-MEL-28) | GI50 (SF-268) | GI50 (NCI-H226) | GI50 (A549) | GI50 (SW-620) | GI50 (OVCAR-4) | GI50 (SR) | GI50 (KM12) | GI50 (UACC-257) | GI50 (SF-539) | GI50 (CCRF-CEM) | GI50 (HT-29) | GI50 (IGROV-1) | GI50 (HOP-92) | GI50 (HL-60) | GI50 (SK-OV-3) |
| --- | --- | --- | --- | --- | --- | --- | --- | --- | --- | --- | --- | --- | --- | --- | --- | --- | --- |
| O=C(O)CCCSC(=O)Nc1ccc(/N=N/c2ccccc2)cc1 | > 100 µM (inactive) | > 100 µM (inactive) | 56.1 µM (inactive) | > 100 µM (inactive) | > 100 µM (inactive) | > 100 µM (inactive) | > 100 µM (inactive) | > 100 µM (inactive) | > 100 µM (inactive) | > 100 µM (inactive) | > 100 µM (inactive) | 31.7 µM (inactive) | > 100 µM (inactive) |  |  |  |  |
| O=C(/C=C/c1ccccc1Cl)c1cccc2ccccc12 | 2.82 µM (inactive) | 13.7 µM (inactive) | 12.9 µM (inactive) | 27.7 µM (inactive) | 16.7 µM (inactive) | 1.88 µM (inactive) | 4.81 µM (inactive) | 2.52 µM (inactive) | 5.24 µM (inactive) | 18 µM (inactive) | 10.8 µM (inactive) | 4.82 µM (inactive) | 10.4 µM (inactive) | 15.3 µM (inactive) | 20.3 µM (inactive) | 10.4 µM (inactive) | 18.9 µM (inactive) |
| CCCCCCCCCCCCCC(=O)OCC1OC(n2cc(F)c(=O)[nH]c2=O)C(N)C(OC(=O)CCCCCCCCCCCCC)C1O (stereo not given) | > 100 µM (inactive) | > 100 µM (inactive) | > 100 µM (inactive) |  | > 100 µM (inactive) | > 100 µM (inactive) | > 100 µM (inactive) | > 100 µM (inactive) | > 100 µM (inactive) | > 100 µM (inactive) | 42.7 µM (inactive) | > 10 µM (inactive) | > 100 µM (inactive) |  | > 100 µM (inactive) | > 100 µM (inactive) | > 100 µM (inactive) |
| C[C@]12CC[C@H](OC(=O)Cc3ccc(N(CCCl)CCCl)cc3)CC1CC[C@@H]1C2CC[C@]2(C)NC(=O)CCC12 (stereo not given in full) | 5.16 µM (inactive) | 15 µM (inactive) | 9.64 µM (inactive) | 15.5 µM (inactive) | 14.6 µM (inactive) | 9.33 µM (inactive) | 12.2 µM (inactive) |  | 11 µM (inactive) | 13.2 µM (inactive) | 3.5 µM (inactive) | 3.54 µM (inactive) | 1.87 µM (inactive) | 14 µM (inactive) | 15.6 µM (inactive) | 2.48 µM (inactive) | 17 µM (inactive) |
| CC(=O)O[C@H]1C(=O)[C@@]2(C)C(C(OC(=O)c3ccccc3)C3[C@@H](O)C(OC(=O)[C@@H](O)[C@H](NC(=O)c4ccccc4)c4ccc(C(F)(F)F)cc4)C(C)=C1C3(C)C)[C@]1(OC(C)=O)CO[C@@H]1C[C@@H]2O (stereo not given in full) | 23.9 µM (inactive) | > 25 µM (inactive) | > 25 µM (inactive) | > 25 µM (inactive) | 17.9 µM (inactive) | 8 µM (inactive) |  | 8.43 µM (inactive) |  | > 25 µM (inactive) | 9.98 µM (inactive) | 18.2 µM (inactive) | 12.6 µM (inactive) | > 25 µM (inactive) |  | 7.98 µM (inactive) | > 25 µM (inactive) |
| Cc1cc(-c2ccccc2)cc2[n+]1CC=C2.[O-][Cl+3]([O-])([O-])[O-] | > 100 µM (inactive) | > 100 µM (inactive) | > 100 µM (inactive) | 45.6 µM (inactive) | > 100 µM (inactive) | > 100 µM (inactive) | > 100 µM (inactive) |  | > 100 µM (inactive) | > 100 µM (inactive) | > 100 µM (inactive) |  | 52.7 µM (inactive) |  | 15.5 µM (inactive) | 72.3 µM (inactive) |  |
| CC1(C)OC2C(CCP(=O)(O)O)OC(c3nc(C(N)=O)cs3)C2O1 (stereo not given) | > 100 µM (inactive) | > 100 µM (inactive) | > 100 µM (inactive) | > 100 µM (inactive) | > 100 µM (inactive) | > 100 µM (inactive) | > 100 µM (inactive) |  | > 100 µM (inactive) | > 100 µM (inactive) |  | > 100 µM (inactive) | > 100 µM (inactive) | > 100 µM (inactive) | > 100 µM (inactive) |  | > 100 µM (inactive) |
| COc1ccc(C(=O)C2=NON3OC23C(=O)c2ccc(OC)cc2)cc1 (stereo not given) | 20.6 µM (inactive) | 17.9 µM (inactive) | 18.8 µM (inactive) | 16.8 µM (inactive) | 22.4 µM (inactive) | 3.31 µM (inactive) | 5.74 µM (inactive) | 2.56 µM (inactive) | 19.2 µM (inactive) | 18.9 µM (inactive) | 10.3 µM (inactive) | 2.34 µM (inactive) | 22.4 µM (inactive) | 11.6 µM (inactive) | 2.59 µM (inactive) | 2.18 µM (inactive) | 19.5 µM (inactive) |
| CCOP(=O)(OCC)/C(C#N)=C\c1ccsc1 | > 100 µM (inactive) | > 100 µM (inactive) | > 100 µM (inactive) | > 100 µM (inactive) | > 100 µM (inactive) | > 100 µM (inactive) | > 100 µM (inactive) |  | > 100 µM (inactive) | > 100 µM (inactive) | > 100 µM (inactive) |  | > 100 µM (inactive) |  | > 100 µM (inactive) |  | > 100 µM (inactive) |
| CC(C)(CN1CCCCC1)C(=O)/C=C/c1ccc(Br)cc1 |  | 3.99 µM (inactive) | 2.34 µM (inactive) | 5.78 µM (inactive) | 2.86 µM (inactive) | 2.56 µM (inactive) | 4.31 µM (inactive) | 2.45 µM (inactive) | 3 µM (inactive) | 6.31 µM (inactive) | 2.09 µM (inactive) | 2.77 µM (inactive) | 3.1 µM (inactive) | 2.79 µM (inactive) | 0.875 µM (active) | 2.4 µM (inactive) | 3.04 µM (inactive) |
| COc1ccc(NC(=O)/C(Cc2nc3ccccc3nc2O)=N\O)c(OC)c1 | > 100 µM (inactive) | > 100 µM (inactive) | > 100 µM (inactive) | > 100 µM (inactive) | > 100 µM (inactive) | > 100 µM (inactive) | > 100 µM (inactive) | > 100 µM (inactive) | > 100 µM (inactive) | > 100 µM (inactive) | > 100 µM (inactive) | > 100 µM (inactive) | > 100 µM (inactive) | > 100 µM (inactive) | > 100 µM (inactive) | > 100 µM (inactive) | > 100 µM (inactive) |
| COc1ccc(CCc2cc(OC)cc(OC)c2)cc1 | 22 µM (inactive) | 29.6 µM (inactive) | 39.4 µM (inactive) | 30.7 µM (inactive) | 19.2 µM (inactive) | 5.93 µM (inactive) | 27 µM (inactive) | 9.71 µM (inactive) | 4.92 µM (inactive) | 51.4 µM (inactive) | 31.6 µM (inactive) | 15.6 µM (inactive) | 6.11 µM (inactive) | 43 µM (inactive) | 38.3 µM (inactive) | 8.69 µM (inactive) | 36.6 µM (inactive) |
| Cc1cc(C)c2[s+]snc2c1 | 75.7 µM (inactive) | 62.1 µM (inactive) | 60.5 µM (inactive) | > 100 µM (inactive) | 95.1 µM (inactive) | 37.6 µM (inactive) | > 100 µM (inactive) | 23.8 µM (inactive) | 95.7 µM (inactive) | 72.3 µM (inactive) | 70 µM (inactive) | 28.5 µM (inactive) | 52.5 µM (inactive) | > 100 µM (inactive) |  | 18.3 µM (inactive) | > 100 µM (inactive) |
| CN(C)CCC(=O)/C=C\c1ccccc1 | 18.9 µM (inactive) | 16.9 µM (inactive) |  | 23 µM (inactive) | 21.6 µM (inactive) | 18.5 µM (inactive) | 19.1 µM (inactive) | 15 µM (inactive) | 15 µM (inactive) | 17.3 µM (inactive) | 16.8 µM (inactive) | 4.06 µM (inactive) | 19.5 µM (inactive) | 24.5 µM (inactive) | 16.6 µM (inactive) | 10.6 µM (inactive) |  |
| O=C(/C=C/c1ccccc1O)c1ccccc1O | > 100 µM (inactive) | > 100 µM (inactive) | > 100 µM (inactive) | 58.9 µM (inactive) | > 100 µM (inactive) | > 100 µM (inactive) | > 100 µM (inactive) |  | > 100 µM (inactive) | > 100 µM (inactive) | > 100 µM (inactive) | 5.74 µM (inactive) | > 100 µM (inactive) | > 100 µM (inactive) | 46.7 µM (inactive) | > 100 µM (inactive) | > 100 µM (inactive) |
| COC(=O)C[C@H]1CCC2(OCCO2)[C@]1(C)C(=O)OC | > 100 µM (inactive) | > 100 µM (inactive) | > 100 µM (inactive) |  | > 100 µM (inactive) | > 100 µM (inactive) | > 100 µM (inactive) |  | > 100 µM (inactive) | > 100 µM (inactive) | > 100 µM (inactive) | > 100 µM (inactive) | > 100 µM (inactive) | > 100 µM (inactive) | > 100 µM (inactive) | > 100 µM (inactive) | > 100 µM (inactive) |
| COC(=O)[C@@H](C)[C@H]1CC[C@@](C)(CCC2=C(C)CC3C=C(C)CCC3C2(C)C)OO1 (stereo not given in full) | 1.5 µM (inactive) | 1.65 µM (inactive) | 1.85 µM (inactive) | 2.04 µM (inactive) | 1.6 µM (inactive) | 0.277 µM (active) | 1.52 µM (inactive) | 1.57 µM (inactive) | 1.42 µM (inactive) | 2.99 µM (inactive) | 1.82 µM (inactive) | 0.165 µM (active) | 1.42 µM (inactive) | 1.42 µM (inactive) |  | 0.212 µM (active) | 2.4 µM (inactive) |

Source: ChEMBL document CHEMBL1201862, “PubChem BioAssay data set” (2004)
